Data taken from patent publication US8293261B2, “Intravascular implant” (Terumo Kabushiki Kaisha, priority 2005, dated 2012).

Tested on: human vascular smooth muscle cells
Type: cell-based
Details: for IC50: human vascular smooth muscle cells, 48 hours with substance, WST-1 absorbance at 450 nm
Procedure: Substances indicated in Table 1 were used to carry out a cell cytotoxicity test using human vascular smooth muscle cells.
More particularly, human vascular smooth muscle cells were implanted into individual wells of a 96-well microtitor plate along with a culture solution (commercial name: SmGM-2 Bullet kit, made by Cambrex Corporation), followed by cultivation in a carbon dioxide gas incubator at 37° C. for 48 hours. The culture solution dissolving MgCl2 that was used as a chemical substance to be tested was added thereto in every […] so that a final concentration was at 1×10^−7 to 10^−1 M, followed by cultivation for further 48 hours.
Next, WST-1 (La Roche Ltd.) was added, followed by cultivation for 4 hours. WST-1 taken in the human vascular smooth muscle cells was extracted, and the absorbance at 450 nm of the resulting extract was measured by means of a microreader (commercial name: iEMS reader MF, made by Labsystems Inc.). It will be noted that WST-1 taken in the human vascular smooth muscle cells emits light when oxidized and reduced by means of an electron transmission system of mitochondria. Accordingly, WST-1 emits light by reaction only with living cells.
A graph was made wherein an abscissa indicates a concentration of a chemical substance to be subjected to the cytotoxicity test and an ordinate indicates a ratio of a quantity of emitted light of cells subjected to treatment with a chemical substance to be tested to a quantity of emitted light of non-treated cells for reference. The degree of cell cytotoxicity was quantified as a concentration of a chemical substance (IC50 value) at which a ratio of a quantity of a dye taken in the treated cells to a quantity of a dye taken in non-treated cells was at 50%.
Such a test was carried out with respect to other types of chemical substances (NdCl2, GdCl2, Ycl3, CrCl2, and NiCl2) to be subjected to the cytotoxicity test to likewise obtain IC50 values.

Structure (SMILES): [Cl][Cr][Cl] [CrCl2]
- IC50: 0.11 mM

Structure (SMILES): [Cl][Gd][Cl] [GdCl2]
- cell cytotoxicity (in words): very low
- IC50: 81 mM

Structure (SMILES): [Cl-].[Cl-].[Mg+2] [MgCl2]
- cell cytotoxicity (in words): very low
- IC50: 34 mM

Structure (SMILES): [Cl-].[Cl-].[Nd+2] [NdCl2]
- cell cytotoxicity (in words): very low
- IC50: 74 mM

Structure (SMILES): [Cl][Ni][Cl] [NiCl2]
- IC50: 0.75 mM

Structure (SMILES): [Cl-].[Cl-].[Cl-].[Y+3] [Ycl3]
- IC50: 0.36 mM
